From patent publication US3997549A, “N-arylsulfenylated derivatives of benzofuranyl methylcarbamates” (priority 1973, dated 1976)
≈ marks a conversion by molar mass, not a printed value. Where two headings read alike, the source gives them in different places.

What was measured:
milkweed bug [1] = assay: Initial contact activity, milkweed bug; conditions: Oncopeltus fasciatus, 48 h, read-out: % Kill, MWB (initial contact)
two-spotted spider mite [2] = assay: Initial contact activity, two-spotted spider mite; conditions: Tetranychus urticae, 48 h, read-out: % Kill, SM (initial contact)
pea aphid [3] = assay: whole plant or invertebrate; conditions: Acyrthosiphon pisum, 48 h, read-out: % Kill, PA (systemic)
Mexican bean beetle [4] = assay: Residual contact activity, Mexican bean beetle; conditions: Epilachna varivestis, 48 h, read-out: % Kill, BB (residual contact)
in vivo = conditions: mouse, po
Method: Acute oral toxicity of the compounds of the present invention to mice was determined after the manner of Hollingworth, Fukuto, and Metcalf in J. Agr. […] A dose of 0.25 ml of each solution was administered to each of four female white Swiss mice using the "bolus" - tipped syringe. […] Final mortality determinations were made forty-eight hours after treatment.

plum curculio [5] = assay: Residual contact activity, plum curculio; conditions: Conotrachelus nenuphar, 48 h, read-out: % Kill, PC (residual contact)
houseflies = assay: whole plant or invertebrate; conditions: Musca domestica, topical, 24 h, read-out: Houseflies LD50
Method: Toxicity of the compounds of the present invention to houseflies was tested using the technique described by March and Metcalf in Bull. Calif. State Dept. Agr. […] Adult female houseflies were treated with one drop of acetone solution, applied to the prothorax, using a syringe calibrated to deliver 1.00 ± 0.05 mm^3 drops. Twenty flies were treated at each dosage, each test compound was applied at 8 to 10 dosage levels. Each test was replicated three times. […] A one-inch square of cotton saturated with 40% sugar solution was provided for food in each carton. The cartons of flies were held in a constant temperature chamber at 60° F and 60% relative humidity for 24 hours before mortality counts were made. Flies totally unable to make crawling or walking movements were counted as dead. LD50 values were calculated in the conventional manner.

granary weevil [6] = assay: Residual contact activity, granary weevil; conditions: Sitophilus granarius, 48 h, read-out: % Kill, GW (residual contact)
confused flour beetle [7] = assay: Residual contact activity, confused flour beetle; type: in vivo; conditions: Tribolium confusum, 48 h, read-out: % Kill, FB (residual contact)
Method: (§1) Initial Contact Activity: One-half gram of test compound was dissolved in 40 ml of acetone and this solution was dispersed in 360 ml of water containing one drop of isooctyl phenyl polyethoxyethanol. An aliquot of this solution was diluted with water to provide a solution containing 1250 ppm of active ingredient. Test organisms and techniques were as follows: The activities against the Mexican bean beetle (Epilachna varivestis Muls.) and the southern army worm (Prodenia eridania [Cram.]) were evaluated by dipping the leaves of pinto bean plants into the test solution and infesting the leaves with the appropriate immature form insects when the foliage had dried; the activity against the pea aphid (Macrosiphum pisi [Harris]) was evaluated on broad bean plants whose leaves were dipped before infestation with adult aphids; the activity against the two-spotted spider mite (Tetranychus urticae [L.]) was evaluated on pinto bean plants whose leaves were dipped after infestation with adult mites; the activities against the milkweed bug (Oncopeltus fascinatus [Dallas]) and the plum curculio (Conotrachelus nenuphar [Herbst]) were evaluated by spraying the test solutions into glass dishes containing the adult insects; the activities against the granary weevil (Sitophilus granarius [L.]) and the confused flour beetle (Tribolium confusum [duVal]) were evaluated by introducing the insects into glass dishes which had been previously sprayed with test solution and allowed to dry. All organisms in the test were maintained in a holding room at 80° F. and 50% relative humidity for an exposure period of forty-eight hours. At this time the number of dead and living insects were counted and the percent kill was calculated.
The residual contact activity of the compounds was determined on the same organisms using the technique described above, except that in each case the treated surface was allowed to dry and was exposed to normal light and air for seven days before introduction of the mites or insects. The compounds show a high order of residual activity toward the test insects.

two-spotted spider mite [8] = assay: whole plant or invertebrate; conditions: Tetranychus urticae, 48 h, read-out: % Kill, SM (systemic)
southern army worm [9] = assay: Initial contact activity, southern army worm; conditions: 1250 ppm, 48 h exposure
Culex fatigans = assay: whole plant or invertebrate; conditions: Culex quinquefasciatus, 24 h, read-out: Mosquitoes LC50
Method: The appropriate amount of stock solution was added with stirring to 100 ml of tap water and 20-25 fourth instar larvae of Culex fatigans were placed in the solution. After twenty-four hours, the counts were taken. Larvae not able to rise to the surface on touch were counted as dead. Each concentration was run in duplicate and each material was run on two or three different days. The average percent mortality was plotted against the logarithm of the concentration (in ppm) and the LC50 value determined by inspection.

southern army worm [10] = assay: Residual contact activity, southern army worm; conditions: 1250 ppm; 7 days; 2880 min
Mexican bean beetle [11] = assay: whole plant or invertebrate; conditions: Epilachna varivestis, 48 h, read-out: % Kill, BB (systemic)
plum curculio [12] = assay: Initial contact activity, plum curculio; conditions: Conotrachelus nenuphar, 48 h, read-out: % Kill, PC (initial contact)
milkweed bug [13] = assay: Residual contact activity, milkweed bug; conditions: Oncopeltus fasciatus, 48 h, read-out: % Kill, MWB (residual contact)
two-spotted spider mite [14] = assay: Residual contact activity, two-spotted spider mite; conditions: Tetranychus urticae, 48 h, read-out: % Kill, SM (residual contact)
southern army worm [15] = conditions: 2880 min
granary weevil [16] = assay: Initial contact activity, granary weevil; conditions: Sitophilus granarius, 48 h, read-out: % Kill, GW (initial contact)
confused flour beetle [17] = assay: Initial contact activity, confused flour beetle; type: in vivo; conditions: Tribolium confusum, read-out: % Kill, FB (initial contact)
Method: as §1

Mexican bean beetle [18] = assay: Initial contact activity, Mexican bean beetle; conditions: Epilachna varivestis, 48 h, read-out: % Kill, BB (initial contact)
pea aphid [19] = assay: Residual contact activity, pea aphid; conditions: Acyrthosiphon pisum, 48 h, read-out: % Kill, PA (residual contact)
pea aphid [20] = assay: Initial contact activity, pea aphid; conditions: Acyrthosiphon pisum, 48 h, read-out: % Kill, PA (initial contact)
[21] = 39 ppm soil watering, separate test vs carbofuran

Compound | mortality at 1250 ppm (milkweed bug [1]) [%] | mortality at 1250 ppm (two-spotted spider mite [2]) [%] | mortality at 39 ppm (pea aphid [3]) [%] | mortality at 1250 ppm (Mexican bean beetle [4]) [%] | LD50 at 48 h (in vivo) [mg/kg] | mortality at 1250 ppm (plum curculio [5]) [%] | LD50 (houseflies) [mg/kg] | mortality at 1250 ppm (granary weevil [6]) [%] | mortality at 39 ppm (two-spotted spider mite [8]) [%] | mortality at 156 ppm (two-spotted spider mite [8]) [%] | % Kill, AW (initial contact) (southern army worm [9]) [%] | LC50 (Culex fatigans) [ng/mL] | % Kill, AW (residual contact) (southern army worm [10]) [%] | mortality at 39 ppm (Mexican bean beetle [11]) [%] | mortality at 156 ppm (Mexican bean beetle [11]) [%] | mortality at 1250 ppm (plum curculio [12]) [%] | mortality at 1250 ppm (milkweed bug [13]) [%] | mortality at 1250 ppm (two-spotted spider mite [14]) [%] | % Kill, AW (systemic) (southern army worm [15]; [21]) [%] | % Kill, AW (systemic) (southern army worm [15]; 156 ppm soil watering) [%] | further results
Cc1ccccc1SN(C)C(=O)Oc1cccc2c1OC(C)(C)C2 [Example II, 2,3-Dihydro-2,2-dimethyl-7-benzofuranyl (methyl)(2-methylphenylthio)carbamate] | 100 | 28 | 100 | 100 | 100 to 125 | 100 | 3.7 | 100 | 5 | 5 | 100 | 4 (≈ 0.0116 µM) | 100 | 100 | 100 | 100 | 100 | 13 | 85 | 100 | mortality at 1250 ppm (confused flour beetle [7]; 1250 ppm, 7 days): 98%; mortality at 1250 ppm (granary weevil [16]): 100%; mortality at 1250 ppm (confused flour beetle [17]; 1250 ppm, 48 h exposure): 98%; mortality at 1250 ppm (Mexican bean beetle [18]): 100%
CN(Sc1ccc(C(C)(C)C)cc1)C(=O)Oc1cccc2c1OC(C)(C)C2 [Example III, 2,3-Dihydro-2,2-dimethyl-7-benzofuranyl (4-tert-butylphenylthio)(methyl)carbamate] | 100 | 27 | 5 | 100 | 75 | 95 | 2.7 | 100 | 1 | 4 | 100 | 2.5 (≈ 0.00648 µM) | 31 | 56 | 100 | 100 | 100 | 2 | 0 | 0 | mortality at 156 ppm (pea aphid [3]): 43%; mortality at 1250 ppm (confused flour beetle [7]; 1250 ppm, 7 days): 100%; mortality at 1250 ppm (granary weevil [16]): 100%; mortality at 1250 ppm (confused flour beetle [17]; 1250 ppm, 48 h exposure): 100%; mortality at 1250 ppm (Mexican bean beetle [18]): 100%
Cc1cc(C(C)(C)C)ccc1SN(C)C(=O)Oc1cccc2c1OC(C)(C)C2 [Example VI, 2,3-Dihydro-2,2-dimethyl-7-benzofuranyl [4-(tert-butyl)-2-methylphenylthio] (methyl)carbamate] | 100 | 77 | 35 | 100 | 75 to 125 | 53 | 7.5 | 100 | 11 | 6 | 95 | 2 (≈ 0.00501 µM) | 100 | 85 | 100 | 100 | 95 | 7 | 0 | 0 | mortality at 1250 ppm (pea aphid [19]): 0%; mortality at 156 ppm (pea aphid [3]): 95%; mortality at 1250 ppm (pea aphid [20]): 0%; mortality at 1250 ppm (confused flour beetle [7]; 1250 ppm, 7 days): 100%; mortality at 1250 ppm (granary weevil [16]): 100%; mortality at 1250 ppm (confused flour beetle [17]; 1250 ppm, 48 h exposure): 90%; mortality at 1250 ppm (Mexican bean beetle [18]): 100%
Cc1cccc(SN(C)C(=O)Oc2cccc3c2OC(C)(C)C3)c1 [Example X, 2,3-Dihydro-2,2-dimethyl-7-benzofuranyl (3-methylphenylthio)(methyl)carbamate] | 100 | 100 | 100 | 100 | 25 to 50 | 95 | 6.5 | 100 | 26 | 28 | 100 | 4 (≈ 0.0116 µM) | 100 | 100 | 100 | 100 | 100 | 30 | 100 | 100 | mortality at 1250 ppm (pea aphid [19]): 100%; mortality at 156 ppm (pea aphid [3]): 100%; mortality at 1250 ppm (pea aphid [20]): 100%; mortality at 1250 ppm (confused flour beetle [7]; 1250 ppm, 7 days): 100%; mortality at 1250 ppm (granary weevil [16]): 100%; mortality at 1250 ppm (confused flour beetle [17]; 1250 ppm, 48 h exposure): 100%; mortality at 1250 ppm (Mexican bean beetle [18]): 100%
Cc1ccc(SN(C)C(=O)Oc2cccc3c2OC(C)(C)C3)cc1 [IV, 2,3-Dihydro-2,2-dimethyl-7-benzofuranyl(methyl)(4-methylphenylthio)carbamate] | 100 | 100 | 100 | 100 | 100 to 125 | 100 | 9 | 100 | 24 | 64 | 100 | 4.5 (≈ 0.0131 µM) | 100 | 100 | 100 | 100 | 100 | 94 | 100 | 100 | mortality at 1250 ppm (confused flour beetle [7]): 92%; mortality at 1250 ppm (granary weevil [16]): 100%; mortality at 1250 ppm (confused flour beetle [17]; 48 h): 100%; mortality at 1250 ppm (Mexican bean beetle [18]): 100%
